According to patent US20170305922A1, “CARM1 INHIBITORS AND USES THEREOF” (Epizyme, Inc., priority 2014, published 2017):

What was measured:
Human CARM1 (PRMT4) = target: T1, Human CARM1 (PRMT4) (Homo sapiens, UniProt Q86X55); test: CARM1 enzyme assay on peptide substrates (3H-SAM Flashplate); settings: Biochemical assay; CARM1 0.25 nM, 3H-SAM 30 nM, peptide 250 nM; read-out: Biochem IC50
T1 construct: Flag-CARM1-His was eluted with 200 ug/ml FLAG peptide in buffer A; made in house; host or cells: HEK 293F cells infected with recombinant baculovirus (pFastBacMam)
T1 sequence (Q86X55 1-585 isoform Q86X55-1): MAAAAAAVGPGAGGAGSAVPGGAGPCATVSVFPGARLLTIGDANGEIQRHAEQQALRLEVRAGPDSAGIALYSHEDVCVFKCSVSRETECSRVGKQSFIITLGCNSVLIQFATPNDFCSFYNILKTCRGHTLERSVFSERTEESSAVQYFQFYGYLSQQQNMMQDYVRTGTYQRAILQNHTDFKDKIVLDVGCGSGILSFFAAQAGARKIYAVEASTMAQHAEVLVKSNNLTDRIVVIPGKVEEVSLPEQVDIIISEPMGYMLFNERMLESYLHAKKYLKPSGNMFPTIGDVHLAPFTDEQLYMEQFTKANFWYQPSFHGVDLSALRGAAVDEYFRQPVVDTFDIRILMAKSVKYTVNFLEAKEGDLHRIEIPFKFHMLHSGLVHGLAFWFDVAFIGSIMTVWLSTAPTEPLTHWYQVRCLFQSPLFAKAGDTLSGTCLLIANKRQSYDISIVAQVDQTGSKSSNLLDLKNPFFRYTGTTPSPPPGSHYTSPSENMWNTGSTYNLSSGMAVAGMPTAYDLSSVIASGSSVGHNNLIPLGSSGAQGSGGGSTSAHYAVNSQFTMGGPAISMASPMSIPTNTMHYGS
Text: S-adenosylmethionine (SAM), S-adenosylhomocysteine (SAH), bicine, Tween20, dimethylsulfoxide (DMSO), bovine skin gelatin (BSG), sodium butyrate and Tris(2-carboxyethyl)phosphine hydrochloride solution (TCEP) were purchased from Sigma-Aldrich at the highest level of purity possible. ^3H-SAM was purchase from American Radiolabeled Chemicals with a specific activity of 80 Ci/mmol. 384-well streptavidin Flashplates were purchased from PerkinElmer.
Peptide representative of human histone H3 residues 16-30 was synthesized with an N-terminal linker-affinity tag motif and a C-terminal amide cap by 21st Century Biochemicals. […] The sequence was Biot-Ahx-[…]-amide and contained a monomethylated arginine at position 26 (SEQ ID NO.:1).
The gene sequence encoding isoform1 containing a deletion of amino acids 539-561 was amplified subsequently and subcloned into pFastBacMam (Viva Biotech).
Recombinant baculovirus were generated according to Bac-to-Bac kit instructions (Life Technologies). Protein over-expression was accomplished by infecting exponentially growing HEK 293F cell culture at 1.3×10^6 cell/ml with virus (MOI=10) in the presence of 8 mM sodium butyrate. Infections were carried out at 37° C. for 48 hours, harvested by centrifugation, and stored at −80° C. for purification.
Column was washed with 500 mM NaCl in buffer A and Flag-CARM1-His was eluted with 200 ug/ml FLAG peptide in buffer A. Pooled fractions were dialyzed in 20 mM Tris, 150 mM NaCl, 5% glycerol and 1 mM DTT, pH 7.8.
The assays were all performed in a buffer consisting of 20 mM Bicine (pH=7.6), 1 mM TCEP, 0.005% BSG, and 0.002% Tween 20, prepared on the day of use. Compounds in 100% DMSO (1 ul) were spotted into a polypropylene 384-well V-bottom plates (Greiner) using a Platemate Plus outfitted with a 384-channel head (Thermo Scientific). DMSO (1 ul) was added to Columns 11, 12, 23, 24, rows A-H for the maximum signal control and 1 ul of SAH, a known product and inhibitor of CARM1, was added to columns 11, 12, 23, 24, rows I-P for the minimum signal control. A cocktail (40 ul) containing the CARM1 enzyme was added by Multidrop Combi (Thermo-Fisher). The compounds were allowed to incubate with CARM1 for 30 min at room temperature, then a cocktail (10 ul) containing ^3H-SAM and peptide was added to initiate the reaction (final volume=51 ul). The final concentrations of the components were as follows: CARM1 was 0.25 nM, ^3H-SAM was 30 nM, peptide was 250 nM, SAH in the minimum signal control wells was 1 mM, and the DMSO concentration was 2%. The assays were stopped by the addition of non-radiolabeled SAM (10 ul) to a final concentration of 300 uM, which dilutes the ^3H-SAM to a level where its incorporation into the peptide substrate is no longer detectable. 50 ul of the reaction in the 384-well polypropylene plate was then transferred to a 384-well Flashplate and the biotinylated peptides were allowed to bind to the streptavidin surface for at least 1 hour before being washed once with 0.1% Tween20 in a Biotek ELx405 plate washer. The plates were then read in a PerkinElmer TopCount plate reader to measure the quantity of ^3H-labeled peptide bound to the Flashplate surface, measured as disintegrations per minute (dpm) or alternatively, referred to as counts per minute (cpm).
where dpm=disintegrations per minute, cmpd=signal in assay well, and min and max are the respective minimum and maximum signal controls.
where top and bottom are the normally allowed to float, but may be fixed at 100 or 0 respectively in a 3-parameter fit. The Hill Coefficient normally allowed to float but may also be fixed at 1 in a 3-parameter fit. Y is the % inhibition and X is the compound concentration.

[1] = test system: asymmetric di-methyl PABP1 in RKO cells; test: RKO methylation assay: In Cell Western (ICW) for asymmetric di-methyl PABP1 (PABP1me2a); settings: Cellular-based (PABP1me2a) ICW (In Cell Western) assay
Text: RKO adherent cells were purchased from ATCC (American Type Culture Collection), Manassas, Va., USA. DMEM/Glutamax medium, penicillin-streptomycin, heat inactivated fetal bovine serum, 0.05% trypsin and D-PBS were purchased from Life Technologies, Grand Island, N.Y., USA. Odyssey blocking buffer, 800CW goat anti-rabbit IgG (H+L) antibody, and Licor Odyssey infrared scanner were purchased from Licor Biosciences, Lincoln, Nebr., USA. Asymmetric di-methyl PABP1 antibody was purchased from Cell Signaling Technology, Danvers, Mass., USA. Methanol was purchased from VWR, Franklin, Mass., USA. 10% Tween 20 was purchased from KPL, Inc., Gaithersburg, Md., USA. Paraformaldehyde (PFA) was purchased from EM Sciences. DRAQ5 was purchased from Biostatus Limited, Leicestershire, UK.
RKO adherent cells were maintained in growth medium (DMEM/Glutamax medium supplemented with 10% v/v heat inactivated fetal bovine serum and 100 units/mL penicillin-streptomycin) and cultured at 37° C. under 5% CO2.
Cell treatment, In Cell Western (ICW) for detection of asymmetric di-methyl PABP1 and DNA content: RKO cells were seeded in assay medium at a concentration of 30,000 cells per mL to a poly-D-lysine coated 384 well culture plate (BD Biosciences 356697) with 50 μL per well. Compound (100 nL) from a 96-well source plate was added directly to 384 well cell plate. Plates were incubated at 37° C., 5% CO2 for 48 hours. After two days of incubation, plates were brought to room temperature outside of the incubator for ten minutes and blotted on paper towels to remove cell media. Cells were fixed for 20 minutes at room temperature by adding 50 ul of 8% PFA followed by aspiration of supernatant with the Biotek EL406 plate washer. Cells were then permeabilized by addition of 50 μL of ice cold 100% methanol directly to each well and incubated for 30 min at room temperature. After 30 min, plates were transferred to a Biotek EL406 plate washer and washed 2 times with 100 μL per well of wash buffer (1×PBS). Next 60 μL per well of Odyssey blocking buffer (Odyssey Buffer with 0.1% Tween 20 (v/v)) were added to each plate and incubated 1 hour at room temperature. Blocking buffer was removed and 20 μL per well of primary antibody was added (asymmetric-methyl PABP1) diluted 1:400 in Odyssey buffer with 0.1% Tween 20 (v/v)) and plates were incubated overnight (16 hours) at 4° C. Plates were washed 5 times with 100 μL per well of wash buffer. Next 20 μL per well of secondary antibody was added (1:800 800CW goat anti-rabbit IgG (H+L) antibody, 1:2000 DRAQ5 in Odyssey buffer with 0.1% Tween 20 (v/v)) and incubated for 1 hour at room temperature. The plates were washed 5 times with 100 μL per well wash buffer then 2 times with 100 μL per well of water. Plates were allowed to dry at room temperature then imaged on the Licor Odyssey machine which measures integrated intensity at 700 nm and 800 nm wavelengths. Both 700 and 800 channels were scanned.
First, the ratio for each well was determined by:
Each plate included fourteen control wells of DMSO only treatment (minimum inhibition) as well as fourteen control wells for maximum inhibition treated with 20 μM of a reference compound. The average of the ratio values for each control type was calculated and used to determine the percent […] for each test well in the plate. Reference compound was serially diluted three-fold in DMSO for a total of nine test concentrations, beginning at 20 μM.
Percent inhibition was determined and IC50 curves were generated using triplicate wells per concentration of compound.

| Compound | IC50 (Human CARM1 (PRMT4)) | IC50 ([1]; Homo sapiens, RKO, 48 h) | IC50 ([1]; 48 hours) |
| --- | --- | --- | --- |
| CNC[C@@H](O)COc1ccc(Cl)c(-c2nc(-c3c(C)noc3C)c(Cl)c(N3Cc4cnn(C)c4C3)n2)c1 [Example 11] | 60.7 nM | > 20000 nM | – |
| CNC[C@@H](O)COc1ccc(Cl)c(-c2nc(-c3c(C)noc3C)c(C)c(N3Cc4c(C)nn(C(C)C)c4C3)n2)c1 [Example 12] | 4.1 nM | 81 nM | – |
| CNC[C@@H](O)COc1ccc(Cl)c(-c2nc(-c3c(C)noc3C)c(C)c(N3Cc4c(C)nn(CC(F)(F)F)c4C3)n2)c1 [Example 13] | 3.6 nM | 74 nM | – |
| CNC[C@@H](O)COc1ccc(Cl)c(-c2nc(-c3c(C)noc3C)c(C)c(N3Cc4cc(C(F)(F)F)cnc4C3)n2)c1 [Example 14] | 2.2 nM | 44 nM | – |
| CNC[C@@H](O)COc1ccc(F)c(-c2nc(-c3c(C)noc3C)c(C)c(N3Cc4cn(C5CC5)nc4C3)n2)c1 [Example 15] | 1.9 nM | 140 nM | – |
| CNC[C@@H](O)COc1ccc(F)c(-c2nc(-c3c(C)noc3C)c(C)c(N3Cc4cnn(C5CC5)c4C3)n2)c1 [Example 16] | 2.1 nM | 56 nM | – |
| CNC[C@@H](O)COc1ccc(F)c(-c2nc(-c3c(C)noc3C)c(C)c(N3Cc4cn(CC(F)(F)F)nc4C3)n2)c1 [Example 17] | 2.4 nM | 162 nM | – |
| CNC[C@@H](O)COc1ccc(F)c(-c2nc(-c3c(C)noc3C)c(C)c(N3Cc4cnn(CC(F)(F)F)c4C3)n2)c1 [Example 18] | 3.1 nM | 69 nM | – |
| CNC[C@@H](O)COc1ccc(Cl)c(-c2nc(-c3c(C)noc3C)c(C)c(N3CC4(CCC(F)CC4)C3)n2)c1 [Example 20] | 7.4 nM | 125 nM | – |
| CNC[C@@H](O)COc1ccc(C(F)(F)F)c(-c2nc(-c3c(C)noc3C)c(C)c(N3CC4(CCOCC4)C3)n2)c1 [Example 21] | 16.6 nM | 179 nM | – |
| CNC[C@@H](O)COc1ccc(C(F)(F)F)c(-c2nc(-c3c(C)noc3C)c(C)c(N3Cc4cn(C(C)C)nc4C3)n2)c1 [Example 22] | 6.3 nM | 181 nM | – |
| CNC[C@@H](O)COc1ccc(C(F)(F)F)c(-c2nc(-c3c(C)noc3C)c(C)c(N3Cc4cnn(C(C)C)c4C3)n2)c1 [Example 23] | 4.7 nM | 111 nM | – |
| CNC[C@@H](O)COc1ccc(C(F)(F)F)c(-c2nc(-c3c(C)noc3C)c(C)c(N3Cc4cccnc4C3)n2)c1 [Example 24] | 5.4 nM | 188 nM | – |
| CNC[C@@H](O)COc1ccc(Cl)c(-c2nc(-c3c(C)noc3C)c(C)c(N3CCC4(C3)OCCO4)n2)c1 [Example 25] | 5.6 nM | 452 nM | – |
| CNC[C@@H](O)COc1ccc(Cl)c(-c2nc(-c3c(C)noc3C)c(C)c(N3Cc4cnn(CC(F)F)c4C3)n2)c1 [Example 26] | 3.4 nM | 66 nM | – |
| CNC[C@@H](O)COc1ccc(Cl)c(-c2nc(-c3c(C)noc3C)c(C)c(N3Cc4cn(CC(F)F)nc4C3)n2)c1 [Example 27] | 3.7 nM | 115 nM | – |
| CNC[C@@H](O)COc1ccc(Cl)c(-c2nc(-c3c(C)noc3C)c(C)c(N3Cc4cnn(C(C)C)c4C3)n2)c1 [Example 28] | 3.2 nM | 41 nM | – |
| CNC[C@@H](O)COc1ccc(Cl)c(-c2nc(-c3c(C)noc3C)c(C)c(N3C[C@H]4CN(CC(F)F)C[C@@H]4C3)n2)c1 [Example 29] | 10.2 nM | 263 nM | – |
| CNC[C@@H](O)COc1ccc(Cl)c(-c2nc(-c3c(C)noc3C)c(C)c(N3C[C@H]4CN(CC(F)F)C[C@H]4C3)n2)c1 [Example 30] | 7 nM | 166 nM | – |
| CNC[C@H](O)COc1ccc(Cl)c(-c2nc(-c3c(C)noc3C)c(C)c(N3CC4(CCN(C(=O)OC)CC4)C3)n2)c1 [Example 248] | – | 294 nM | – |
| CNC[C@@H](O)COc1ccc(Cl)c(-c2nc(-c3c(C)noc3C)c(C)c(N3CC4(CCN(C(=O)OC)CC4)C3)n2)c1 [Example 261] | – | 53.9 nM | – |
| CNC[C@@H](O)COc1ccc(Cl)c(-c2nc(-c3c(C)noc3C)c(C)c(N3CC4(CCN(C(=O)OC)CC4)C3)n2)c1 [Example 292] | – | – | 66.7 nM |
